Publication PMC8962514 (ACS infectious diseases, 2022)
In brackets after ≈: the same amount, converted by molar mass. Non-standard residues stand in square brackets, D forms with d. Residues, ends and D or L forms follow the SMILES beside them. Nspe = C[C@H](NCC(=O)O)c1ccccc1; NDecylGly = CCCCCCCCCCNCC(=O)O; Nlys = NCCCCNCC(=O)O

Legend:
[1] = tested on: P. aeruginosa biofilm; assay: Minimal biofilm inhibition; format: cell-based, Pseudomonas aeruginosa; conditions: 1.56 μg/mL peptoid, relative to PBS, n = 3
[2] = tested on: P. aeruginosa LESB58 biofilm; assay: Biofilm eradication under host-mimicking conditions, monomicrobial; format: cell-based, Pseudomonas aeruginosa; conditions: 31.25 μg/mL peptoid, DMEM-FBS-G, n = 3
[3] = tested on: K. pneumoniae biofilm; assay: Minimal biofilm inhibition; format: cell-based, Klebsiella pneumoniae; conditions: 1.56 μg/mL peptoid, relative to PBS, n = 3
[4] = tested on: S. aureus USA300 LAC; assay: Subcutaneous abscess infection model; format: in vivo, mice; conditions: 1.25 mg/kg for TM8, vs PBS
[5] = tested on: S. aureus biofilm; assay: Minimal biofilm inhibition; format: cell-based, Staphylococcus aureus; conditions: 1.56 μg/mL peptoid, relative to PBS, n = 3
[6] = tested on: S. aureus pre-formed biofilm; assay: Minimal biofilm eradication; format: cell-based, Staphylococcus aureus; conditions: 12.5 μg/ml peptoid (Figure 4 legend; 6.25 μg/mL), relative to PBS, n = 3
[7] = tested on: S. aureus USA300 LAC; format: cell-based, Staphylococcus aureus; conditions: USA300, 16 h
[8] = tested on: E. cloacae 218R1; format: cell-based, Enterobacter cloacae; conditions: 218R1, 16 h
[9] = tested on: A. baumannii pre-formed biofilm; assay: Minimal biofilm eradication; format: cell-based, Acinetobacter baumannii; conditions: 6.25 μg/ml peptoid, relative to PBS, n = 3
[10] = tested on: K. pneumoniae pre-formed biofilm; assay: Minimal biofilm eradication; format: cell-based, Klebsiella pneumoniae; conditions: 12.5 μg/ml peptoid (Figure 4 legend; 6.25 μg/mL), relative to PBS, n = 3
[11] = tested on: E. cloacae biofilm; assay: Minimal biofilm inhibition; format: cell-based, Enterobacter cloacae; conditions: 1.56 μg/mL peptoid, relative to PBS, n = 3
[12] = tested on: A. baumannii AB5075; format: cell-based, Acinetobacter baumannii; conditions: AB5075, 16 h
[13] = tested on: E. faecium #2-1; format: cell-based, Enterococcus faecium; conditions: #2-1, 16 h
[14] = tested on: P. aeruginosa LESB58; format: cell-based, Pseudomonas aeruginosa; conditions: LESB58, 16 h
[15] = In vivo toxicity / maximum tolerated dose; conditions: mice, Table S3
[16] = Self-assembly in aqueous solution by small angle X-ray scattering; format: physicochemical
[17] = tested on: K. pneumoniae KPLN649; format: cell-based, Klebsiella pneumoniae; conditions: KPLN649, 16 h

With `CCCCCCCCCCNCC(=O)N(CCCCN)CC(=O)N(CC(=O)N(CC(=O)N(CCCCN)CC(=O)N(CC(=O)N(CC(N)=O)[C@@H](C)c1ccccc1)[C@@H](C)c1ccccc1)[C@@H](C)c1ccccc1)[C@@H](C)c1ccccc1` [TM8] (H-[NDecylGly][Nlys][Nspe][Nspe][Nlys][Nspe][Nspe]-NH2) the “Inhibition of biofilm formation (CV staining)” value (shortened to “Inhibition of biofilm formation”) [1] was “inhibited biofilm formation”, the “Reduction of P. aeruginosa bacterial numbers in biofilm (CFU)” value [2] was 1,000 fold and the “Inhibition of biofilm formation” value [3] was “inhibited biofilm formation”. For the same molecule, the “Effect on S. aureus abscess size and bacterial burden, in words” value [4] was “insignificantly reduced”, the “Inhibition of biofilm formation” value [5] was “inhibited biofilm formation” and the “Reduction of biomass of pre-formed biofilm (CV staining)” value [6] was “impacted”. For the same molecule, the “Minimum inhibitory concentration (MIC)” value [7] was 3.13 µg/mL (≈ 2.81 µM), the “Minimum inhibitory concentration (MIC)” value [8] was 12.5 µg/mL (≈ 11.2 µM) and the “Reduction of biofilm metabolic activity (TTC reduction)” value [9] was “metabolic activity was reduced”. The “Reduction of biomass of pre-formed biofilm (CV staining)” value [10] was “impacted”, the “Inhibition of biofilm formation” value [11] was “inhibited biofilm formation” and the “Minimum inhibitory concentration (MIC)” value [12] was 3.13 µg/mL (≈ 2.81 µM). The “Minimum inhibitory concentration (MIC)” value [13] was 0.78 µg/mL (≈ 0.699 µM), the “Minimum inhibitory concentration (MIC)” value [14] was 6.25 µg/mL (≈ 5.6 µM) and the Maximum tolerated dose [15] was 1.25 mg/kg. The “Eccentricity (ε) of ellipsoidal micelles” value ([16]; SAXS model analysis) was 1.9, the “Rcore of ellipsoidal micelles” value ([16]; SAXS model analysis) was 10 Å and the “dR (shell) of ellipsoidal micelles” value ([16]; SAXS model analysis) was 9 Å. For the same molecule, the “Aggregation number of ellipsoidal micellar assemblies” value ([16]; SAXS, on average) was roughly 103 peptoids, the “Fraction of larger aggregates” value ([16]; SAXS, upturn at low Q, 4mM, 20°C) was ~ 0.08% and the “Self-assembled structure (SAXS best fit)” value ([16]; aqueous solution, peptoids 4mM, 20°C, theoretical model analysis) was “ellipsoidal micellar assemblies”. The “Minimum inhibitory concentration (MIC)” value [17] was 12.5 µg/mL (≈ 11.2 µM).
